From US10987322B2, “Immunoregulatory agents” (FLEXUS BIOSCIENCES, INC., priority 2014, dated 2021) come the findings set out here.

In the test the target is IDO (Homo sapiens, UniProt P14902). As to the kind of experiment: IDO enzyme activity assay. The class given is biochemical. Particulars: read-out: Potency: IDO IC50. The protocol: An IDO enzyme assay and cellular production of kynurenine (KYN) is described in Sarkar, S. A. et al., Diabetes 56:72-79 (2007). Briefly, all chemicals can be purchased from Sigma-Aldrich (St. Louis, Mo.) unless specified otherwise. Groups of 1,000 human islets can be cultured for 24 h in 1 mL medium with cytokines, recovered by centrifugation for 5 min at 800×g and sonicated in 150 μL PBS containing a protease inhibitor cocktail (Set 2; Calbiochem, EMD Biosciences, San Diego, Calif.). The sonicate can be centrifuged for 10 min at 10,000×g, and the supernatant can be assayed in triplicate by incubating a 40 μl sample with an equal volume of 100 mmol/L potassium phosphate buffer, pH 6.5, containing 40 mmol/L ascorbic acid (neutralized to pH 7.0), 100 μmol/L methylene blue, 200 μg/mL catalase, and 400 μmol/l L-Trp for 30 min at 37° C. The assay can be terminated by the addition of 16 μL 30% (w/v) trichloroacetic acid (TCA) and further incubated at 60° C. for 15 min to hydrolyze N-formylkynurenine to KYN. The mixture can then be centrifuged at 12,000 rpm for 15 min, and KYN can be quantified by mixing equal volume of supernatant with 2% (w/v) Ehrlich's reagent in glacial acetic acid in 96-well microtiter plate and reading the absorbance at 480 nm using L-KYN as standard. Protein in the islet samples can be quantified by Bio-Rad Protein assay at 595 nm. For the detection of L-KYN in the islet culture supernatants, proteins can be precipitated with 5% (w/v) TCA and centrifuged at 12,000 rpm for 15 min, and determination of KYN in the supernatant with Ehrlich's reagent can be determined as described above. IL-4 ([…]; 500-2,000 units/mL) and 1-α-methyl Trp (1-MT; 40 μmol/L) can be added to the incubation media as indicated. This assay can also form the basis of a cell-based assay, and may be quantified via LCMS/MS as an alternative to UV/Vis detection.
Chain of IDO (P14902 whole entry): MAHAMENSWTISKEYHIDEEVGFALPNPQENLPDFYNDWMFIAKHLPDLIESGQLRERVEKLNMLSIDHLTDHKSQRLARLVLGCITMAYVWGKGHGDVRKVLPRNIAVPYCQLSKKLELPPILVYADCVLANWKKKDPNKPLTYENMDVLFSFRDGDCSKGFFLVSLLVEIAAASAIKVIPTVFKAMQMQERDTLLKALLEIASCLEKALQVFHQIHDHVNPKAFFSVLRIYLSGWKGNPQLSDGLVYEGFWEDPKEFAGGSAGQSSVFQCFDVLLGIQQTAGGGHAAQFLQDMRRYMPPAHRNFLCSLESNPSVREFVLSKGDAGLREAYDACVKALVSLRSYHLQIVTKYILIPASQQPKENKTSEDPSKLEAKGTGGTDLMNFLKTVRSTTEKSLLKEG
cDNA clones for both human and mouse IDO have been isolated and verified by sequencing and are commercially available. In order to prepare IDO for biochemical studies, C-terminal His-tagged IDO protein can be produced in E. coli using the IPTG-inducible pET5a vector system and isolated over a nickel column. The yield of the partially purified protein can be verified by gel electrophoresis and the concentration estimated by comparison to protein standards. To assay IDO enzymatic activity, a 96-well plate spectraphotometric assay for kynurenine production can be run following published procedures (see, e.g., Littlejohn, T. K., et al. (2000) Prot. Exp. Purif. 19:22-29). To screen for IDO inhibitory activity, compounds can be evaluated at a single concentration of, for example, 200 μM against 50 ng of IDO enzyme in 100 μL reaction volumes with tryptophan added at increasing concentrations at, for example, 0, 2, 20, and 200 μM. Kynurenine production can be measured at 1 hour.
Regarding `O/N=C(/CC(O)C1CCCCC1)Nc1ccc(Cl)c(F)c1` (stereo not drawn), the half-inhibitory concentration (IC50) (usually the concentration that inhibits the measured activity by half) was less than 100 µM.

`CC(C)C/C(=N/O)Nc1cccc(Cl)c1`: the IC50 was less than 1 µM.

As to `O/N=C(/CC1CCCC1)Nc1cccc(Cl)c1`, the half-maximal inhibitory concentration (IC50) was less than 1 µM.

Consider `O/N=C(/CC(O)C1CCCCC1)Nc1cc(Cl)cc(Cl)c1` (stereo not drawn), for which the 50% inhibitory concentration (IC50) was less than 10 µM.

Take `O/N=C(/CC1CCCO1)Nc1cccc(Cl)c1` (stereo not drawn): the 50% inhibitory concentration (IC50) was less than 10 µM.

Turning to `O/N=C(/CCC1CCCCC1)Nc1cccc(Cl)c1`, the 50% inhibitory concentration (IC50) is less than 1 µM.

With `CC/C(=N/O)Nc1cccc(Cl)c1`, the 50% inhibitory concentration (IC50) is less than 10 µM.

With `O/N=C(\Nc1cccc(Cl)c1)C1CCCC1`, the half-maximal inhibitory concentration (IC50) is less than 10 µM.

Consider `CCC/C(=N/O)Nc1cccc(Cl)c1`, for which the IC50 was less than 1 µM.

As for `CCCCCC/C(=N/O)Nc1cccc(Cl)c1`, the IC50 is less than 1 µM.

Consider `O/N=C(/CC(O)C1CCCCC1)Nc1ccc(F)c(F)c1` (stereo not drawn), for which the IC50 is less than 100 µM.

Take `CC(C)CC/C(=N/O)Nc1cccc(Cl)c1`: the IC50 is less than 1 µM.

On to `O/N=C(/CC(O)C1CCCCC1)Nc1cccc(F)c1` (stereo not drawn), for which the half-maximal inhibitory concentration (IC50) is less than 100 µM.

With `CCCCC/C(=N/O)Nc1cccc(Cl)c1`, the IC50 was less than 1 µM.

As for `O/N=C(/CC1CCCC1O)Nc1cccc(Cl)c1` (stereo not drawn), the concentration for half-maximal inhibition (IC50) was less than 10 µM.

For the compound `OCCCC/C(=N/O)Nc1cccc(Cl)c1`, the IC50 was less than 10 µM.

For `CC(C)(C)C/C(=N/O)Nc1cccc(Cl)c1`, the IC50 is less than 100 µM.

Consider `CCCC/C(=N/O)Nc1cccc(Cl)c1`, for which the IC50 is less than 1 µM.

In the case of `O/N=C(/CCC1CCCC1)Nc1cccc(Cl)c1`, the half-inhibitory concentration (IC50) is less than 1 µM.

Regarding `O/N=C(/CC(O)C1CCCCC1)Nc1cccc(Cl)c1` (stereo not drawn), the IC50 is less than 10 µM.

Take `O/N=C(/CC1CC1)Nc1cccc(Cl)c1`: the IC50 was less than 1 µM.

For the compound `O/N=C(/CC1CCCCC1)Nc1cccc(Cl)c1`, the IC50 was less than 1 µM.

Consider `O/N=C(/CC(O)C1CCCCC1)Nc1cccc(C(F)(F)F)c1` (stereo not drawn), for which the IC50 is less than 100 µM.

Consider `O/N=C(/CC(O)C1CCCCC1)Nc1cc(F)cc(Cl)c1` (stereo not drawn), for which the half-inhibitory concentration (IC50) was less than 100 µM.
